Assay results: publication PMC11053687, “Synthesis and Pharmacological Characterization of New Photocaged Agonists for Histamine H3 and H4 Receptors” (Pharmaceuticals, 2024)
Converted amounts (≈) assume the structure as drawn. Like-named read-outs stand apart in the source and are kept apart here. Blank lines part the entries; values can stand above or below the compound they belong to.

Experiments:
[1] = target: T1, human H4R (Homo sapiens, UniProt Q9H3N8); assay: [3H]histamine competition binding, membranes of HEK293T cells transiently expressing H4R
T1 construct: expressed in transfected cells; host or cells: HEK293T (transient, PEI); membranes
Description: (§1) Both GPCRs were transiently expressed in HEK293T cells.
(§2) Membranes were collected from HEK293T cells transiently transfected with H3R or H4R by PEI method. In brief, 2 million HEK293T cells were seeded into a 10 cm dish one day before transfection. The next day, the cells were transfected with 2.5 μg cDNA encoding H3R (GenBank accession number AF140538) or H4R (GenBank accession number AY136745) supplemented with 2.5 μg empty pcDEF3 [45] plasmid using 20 μg PEI. Two days after transfection, the transfected HEK293T cells were detached using ice-cold PBS, and the membrane pellets were subsequently collected by centrifuging at 1932× g at 4 °C for 10 min.
For competition binding assays, the tested compounds were pre-irradiated to reach the uncaged state. […] After drying for 30 min at 55 °C, the radioactivity remaining on the filters was quantified using a Microbeta Wallac Trilux scintillation counter, following the addition of scintillation liquid with a two-hour delay.
All data are shown as mean ± S.D. from three individual experiments performed in triplicate. Figures were generated and data analyzed by Prism 9. […] In FRET-EPAC assays, the ligand-induced cAMP inhibition was quantified by FRET ratios, dividing the FRET signal at 530 nm by the signal at 480 nm. […]

[2] = target: T2, H3R (Homo sapiens, UniProt Q9Y5N1); design: expressed in transfected cells; host or cells: HEK293 cells stably expressing EPAC-cAMP FRET biosensor and H3R; method as in PMID 30249614; details: saturation binding of the radioligand to H3R; cited from earlier work
T2 sequence (Q9Y5N1 whole entry): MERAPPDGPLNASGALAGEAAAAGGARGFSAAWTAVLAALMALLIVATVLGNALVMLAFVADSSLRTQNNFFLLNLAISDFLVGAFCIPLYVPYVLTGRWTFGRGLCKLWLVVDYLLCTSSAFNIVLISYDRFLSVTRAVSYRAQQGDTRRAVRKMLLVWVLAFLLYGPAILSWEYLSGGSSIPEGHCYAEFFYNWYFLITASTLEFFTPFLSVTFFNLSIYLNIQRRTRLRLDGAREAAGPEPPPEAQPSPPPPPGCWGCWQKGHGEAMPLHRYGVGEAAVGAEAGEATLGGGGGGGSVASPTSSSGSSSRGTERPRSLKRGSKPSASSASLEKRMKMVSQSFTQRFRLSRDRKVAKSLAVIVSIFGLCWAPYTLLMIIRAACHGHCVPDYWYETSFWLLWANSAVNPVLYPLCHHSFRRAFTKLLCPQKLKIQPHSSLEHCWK

[3] = Photo-uncaging at 560 nm followed by LC-MS with internal standard; format: physicochemical; details: VUF25657 3.2 μM in Tris-HCl buffer
Description: (§3) Next, the photochemical properties of the caged VUF25657 and VUF25678 were investigated. […] Based on the photochemical stability results in Figure S2, photo characterizations of VUF25657 and VUF25678 were performed under red LED light. Due to the low absorbance of immepip and 4-methylhistamine at 230 and 254 nm, a quantitative analysis method based on mass (MS) detection was employed. First, calibration curves of monitored compounds with the corresponding reference compound of the same molecular weight were built (Figure S3). Then, after illumination, the reference compounds were added to LCMS samples as internal standards. Based on the MS signal areas, the concentrations of caged compounds and parent compounds could be monitored. In Tris-HCl buffer (50 mM, pH 7.4), the absorption maximum (λmax) was determined to be 551 nm for VUF25657 (Figure 1A) and 546 nm for VUF25678 (Figure S4A). […] After 180 s of illumination, the concentration of immepip reached 0.92 μM, amounting to 29% uncaging efficiency. Further illumination led to a decreased immepip concentration (for example, 0.53 μM at 20 min). One potential explanation for this could be the reaction of immepip with side products or intermediates formed during the uncaging process.
Figure 1 Photo-uncaging followed by UV–Vis (ultraviolet-visible) and LC–MS analysis. (A) VUF25657 (3.2 μM) was illuminated under 560 nm in Tris-HCl buffer (50 mM, pH 7.4)/1% DMSO at room temperature and a UV–Vis spectrum was measured at intervals. Only the 350–750 nm region is shown; (B) VUF25657 (3.2 μM) was illuminated under green LED light in Tris-HCl buffer (50 mM, pH 7.4)/1% DMSO at 37 °C and LC–MS analysis was performed at different time points using an internal standard.

[4] = target: T2, H3R; assay: [3H]NAMH competition binding, membranes of HEK293T cells transiently expressing H3R; design: expressed in transfected cells; host or cells: HEK293T (transient, PEI); membranes
Description: as §1, §2
For competition binding assays, the tested compounds were pre-irradiated to reach the uncaged state. In brief, 0.3 mM stock of photocaged ligand (dissolved in DMSO) was divided into two samples, one of which was subsequently diluted in Tris-HCl buffer (50 mM, pH 7.4) to 3 μM and then irradiated by 560 nm to reach the uncaged state, as confirmed by LC–MS, and the other sample was kept in dark to retain its caged state. The prepared membrane pellets expressing H3R or H4R were resuspended in Tris-HCl buffer (50 mM, pH 7.4) and disrupted by 5 s sonication to make membrane suspension. Next, all the following handling was performed under near-infrared light. […] Following one hour of incubation with continuous shaking at 225 rpm at 25 °C, the reaction was terminated by transferring the mixture to GF/C filter plates that were pre-soaked with a solution containing 0.5% PEI and washed with cold Tris-HCl buffer. After drying for 30 min at 55 °C, the radioactivity remaining on the filters was quantified using a Microbeta Wallac Trilux scintillation counter, following the addition of scintillation liquid with a two-hour delay.
(§4) All data are shown as mean ± S.D. from three individual experiments performed in triplicate. Figures were generated and data analyzed by Prism 9. In radioligand binding assays, the competition binding curves were fitted by ‘one-site—Fit Ki’ to obtain the equilibrium dissociation constants of unlabeled ligands (Ki) by Cheng-Prusoff equation [46]. In FRET-EPAC assays, the ligand-induced cAMP inhibition was quantified by FRET ratios, dividing the FRET signal at 530 nm by the signal at 480 nm. The response was represented as ΔFRET ratios, obtained by the analysis of ‘Fractional difference: (Value—Baseline)/Baseline’. Then the concentration–response curves were fitted using the model: ‘log(agonist) vs. response (three parameters)’ to obtain potency (pEC50).
Figure 2 Displacement binding curves of parent, caged, and uncaged ligands for H3R (A) and H4R (B). […] Caged ligands were either kept in dark or pre-irradiated at 560 nm for 3 min for VUF25657 and 5 min for VUF25678 to achieve the uncaged state. Data shown are mean ± S.D. from three or four independent experiments, each performed in triplicate.

[5] = UV-Vis absorption in Tris-HCl buffer; format: physicochemical; details: Tris-HCl buffer (50 mM, pH 7.4)
Description: as §3, with “Further illumination led to a decreased immepip concentration (for example, 0.53 μM at 20 min). One potential explanation for this could be the reaction of immepip with side products or intermediates formed during the uncaging process.” left out
Figure 1 Photo-uncaging followed by UV–Vis (ultraviolet-visible) and LC–MS analysis. (A) VUF25657 (3.2 μM) was illuminated under 560 nm in Tris-HCl buffer (50 mM, pH 7.4)/1% DMSO at room temperature and a UV–Vis spectrum was measured at intervals. […]
measured at intervals; (B) […] (3.2 μM) was illuminated under green LED light in Tris-HCl buffer (50 […]

[6] = target: T2, H3R; assay: cAMP inhibition by FRET-EPAC biosensor in HEK293-EPAC cells stably expressing H3R; format: cell-based; design: expressed in transfected cells; host or cells: HEK293 cells stably expressing EPAC-cAMP FRET biosensor and H3R; details: for EC50: inhibition of cAMP induced by 10 nM isoprenaline, FRET after 20 min
Description: H3R primarily couples to Gαi protein, which upon activation causes a decrease in intracellular cAMP levels via the inhibition of adenylate cyclase. Therefore, the HEK-EPAC cells were pre-treated with 10 nM of the beta2 adrenergic receptor (β2AR) agonist isoprenaline before H3R stimulation to enhance the basal intracellular cAMP levels via β2AR-Gαs activation. As anticipated, the H3R selective agonist immepip reduced the isoprenaline-induced cAMP accumulation, as detected by an increased FRET (fluorescence resonance energy transfer) signal in the EPAC (exchange protein directly activated by cAMP) biosensor (Figure 3A).
HEK293T cells (ATTC, CRL-1573) were cultured in DMEM supplemented with 10% FBS and 1% P/S in a humidified incubator at 37 °C with 5% CO2. The HEK293 cell line stably expressing an EPAC-cAMP FRET biosensor was kindly provided by Dr. M. Zimmermann (Interax Biotech, Basal, Switzerland). HEK293-EPAC cells stably co-expressing the H3R (GenBank accession number NM_007232.3) were generated as previously described.
EPAC-H3R cells were seeded into black 96-well plates with 50,000 cells per well one day before the experiment. The next day, the culture medium was replaced with HBSS. Subsequently, 10 nM isoprenaline (dissolved in HBSS supplemented with 20 mM thiourea) was added for 10 min incubation to elevate basal cAMP levels. Fluorescence resonance energy transfer (FRET) measurements were recorded by CLARIOstar plate reader in real-time or at 20 min after ligand stimulation.
as §4
Figure 3 Optical modulation of VUF25657-induced cAMP inhibition in EPAC-H3R cells. Real time modulation of isoprenaline-induced cAMP acumination in HEK-EPAC cells by 1 μM immepip (A). Modulation of isoprenaline-induced cAMP acumination in HEK-EPAC cells by increasing concentrations of VUF25657 (B). HEK-EPAC cells stably expressing H3R were pre-stimulated with 10 nM isoprenaline for 10 min before ligand addition. The FRET signal of the EPAC-sensor was measured after 20 min treatment of indicated ligands. VUF25657 was either kept in dark or pre-irradiated at 560 nm for 3 min to release the BODIPY cage. Data are mean ± S.D. from four independent experiments performed, each in triplicate.

[7] = Nephelometry (aqueous solubility); format: physicochemical; details: 50 mM Tris-HCl buffer with 1% DMSO, pH 7.4, aqueous buffer, kinetic from dmso stock, in the dark, read-out: aqueous solubility (limit)
[8] = after 180 s of illumination at 560 nm

SMILES: Cc1[nH]cnc1CCN [4-methylhistamine, 2-(5-methyl-1H-imidazol-4-yl)ethan-1-amine, reference compound]
pKi +560 nm ([1]; H4R, displacement of 4 nM [3H]histamine, pre-irradiated at 560 nm (5 min for VUF25678)): 7.2 ± 0.1 (3)

SMILES: CNCCc1cnc[nH]1 [[^3H]NAMH, N-α-[methyl-^3H] histamine]
Kd [2]: 1.37 nM

concentration of immepip released [3, 8]: 920 nM | uncaging efficiency [3, 8]: 29% | concentration of immepip released ([3]; illumination at 560 nm, at 20 min): 530 nM | Ki ([4]; H3R, displacement of 2 nM [3H]NAMH, compound kept in dark (caged state), read-out: pKi In Dark (converted)): 50.1 nM | decrease in affinity for H3R compared with immepip ([4]; caged state (dark) vs parent immepip): 125 fold | increase in H3R affinity after illumination in comparison to caged state ([4]; illumination at 560 nm vs dark): 12 fold | absorption maximum (λmax) [5]: 551 nm | melting point: 148.7 to 150.7 °C | decrease in potency of cAMP inhibition compared with immepip ([6]; caged state (dark) vs parent immepip, listed as 5 (VUF25657)): > 100 fold | EC50 ([6]; kept in dark, read-out: pEC50 In Dark (converted)): 10 nM | higher potency of cAMP inhibition after irradiation than caged state ([6]; irradiation at 560 nm vs dark): 20 fold | solubility [7]: 3.2 µM (≈ 1.68 µg/mL)
SMILES: CCC1=C(C)C2=C(COC(=O)N3CCC(Cc4c[nH]cn4)CC3)c3c(C)c(CC)c(C)n3[B-](F)(F)[N+]2=C1C [VUF25657, (2,8-Diethyl-5,5-difluoro-1,3,7,9-tetramethyl-5H-4λ^4,5λ^4-dipyrrolo [1,2-c:2′,1′-f][1,3,2]diazaborinin-10-yl)methyl 4-((1H-imidazol-4-yl)methyl)piperidine-1-carboxylate]

reduction in affinity for H4R on caging ([1]; caged compound vs parent 4-methylhistamine): 10–100 fold | absorption maximum (λmax) [5]: 546 nm | melting point: 108.8 to 116.3 °C | solubility [7]: 3.2 µM (≈ 1.55 µg/mL)
SMILES: CCC1=C(C)C2=C(COC(=O)NCCc3nc[nH]c3C)c3c(C)c(CC)c(C)n3[B-](F)(F)[N+]2=C1C [VUF25678, (2,8-Diethyl-5,5-difluoro-1,3,7,9-tetramethyl-5H-4λ^4,5λ^4-dipyrrolo [1,2-c:2′,1′-f][1,3,2]diazaborinin-10-yl)methyl (2-(5-methyl-1H-imidazol-4-yl)ethyl)carbamate]

SMILES: c1nc(CC2CCNCC2)c[nH]1 [immepip, 4-((1H-imidazol-4-yl)methyl)piperidine, reference compound]
pKi In Dark ([4]; H3R, displacement of 2 nM [3H]NAMH, compound kept in dark (caged state)): 9.4 ± 0.2 (4) | pKi +560 nm ([4]; H3R, displacement of 2 nM [3H]NAMH, pre-irradiated at 560 nm (3 min for VUF25657)): 9.4 ± 0.3 (4) | EC50 ([6]; pEC50 +560 nm, pre-irradiated at 560 nm for 3 min): 0.0631 nM | EC50 ([6]; pEC50 In Dark, kept in dark): 0.0316 nM
